In patent US20240263068A1, “AIE Fluorescent Probe Composition, Method and Device for Measuring CMC of Surfactant Solution, and Method and Device for CMC Determination” (Moon House (China) Co., Ltd., priority 2022, published 2024):
Where two headings read alike, the source gives them in different places.

Columns and labels:
[1] = Fluorescence emission peaks excited by 365 nm ultraviolet light; type: physicochemical
Text: That is, the wavelength range of 400-550 nm within which the emission peaks of the fluorescent whitening agent CBS occur is avoided. In this way, the interference of the fluorescent whitening agent with the CMC determination result may be avoided.

[2] = Text: It is generally believed that the type or polarity of a solvent almost has no influence on the fluorescence absorption or emission spectrum of the HPS.
[3] = cited from earlier work

SMILES: O=S(=O)([O-])c1ccccc1C=Cc1ccc(-c2ccc(C=Cc3ccccc3S(=O)(=O)[O-])cc2)cc1.[Na+].[Na+] [CBS]
- Wavelength range of emission peaks ([1]; fluorescent whitening agent in detergent): 400-550 nm

SMILES: C[S+](C)[O-] [DMSO]
- Solubility of HPS to Solvent [2]: soluble

SMILES: c1ccc(C2=C(c3ccccc3)[Si](c3ccccc3)(c3ccccc3)C(c3ccccc3)=C2c2ccccc2)cc1 [HPS, 1,1,2,3,4,5-hexaphenylsilole]
- Fluorescence emission peak, sharp with high intensity ([1]; excited by 365 nm): 350-370 nm
- Fluorescence emission peak, wide and short with relatively low intensity ([1]; excited by 365 nm): 720-740 nm
- Solubility of HPS ([3]; alcohols such as methanol): slightly soluble
- Solubility of HPS ([3]; good solvents such as acetonitrile, tetrahydrofuran and chloroform): highly soluble
- Solubility of HPS ([3]; water): completely insoluble
- Solubility of HPS powder in water [2]: insoluble in water

SMILES: CN1CCCC1=O [NMP]
- Solubility of HPS to Solvent [2]: soluble

SMILES: c1ccc2ncccc2c1 [Quinoline]
- Solubility of HPS to Solvent [2]: soluble

SMILES: CCCCCO [n-pentanol]
- Solubility of HPS to Solvent [2]: slightly soluble
